Assay results as given in PubChem BioAssay (NCI).
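Cells were grown in 96-well plates and exposed to each compound for 48 hours at five concentrations; endpoints were interpolated linearly between bracketing concentrations, or set to the highest concentration if not reached. GI50 = concentration required for 50% inhibition of growth. TGI denotes the concentration required for complete inhibition of growth.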

Assays:
Assay in all cases: growth of human tumour cells (NCI), 48 h
SNB-19 CNS = tested on: SNB-19 CNS
OVCAR-3 ovarian = tested on: OVCAR-3 ovarian
U251 CNS = tested on: U251 CNS
SF-539 CNS = tested on: SF-539 CNS
SF-295 CNS = tested on: SF-295 CNS
EKVX NSCLC = tested on: EKVX NSCLC
A498 renal = tested on: A498 renal
LOX IMVI melanoma = tested on: LOX IMVI melanoma
MCF7 breast = tested on: MCF7 breast
MDA-MB-435 = tested on: MDA-MB-435

Row | Structure (SMILES) | TGI (SNB-19 CNS) [µM] | TGI (OVCAR-3 ovarian) [µM] | TGI (U251 CNS) [µM] | TGI (SF-539 CNS) [µM] | TGI (SF-295 CNS) [µM] | TGI (EKVX NSCLC) [µM] | TGI (A498 renal) [µM] | TGI (LOX IMVI melanoma) [µM] | GI50 (SNB-19 CNS) [µM] | GI50 (OVCAR-3 ovarian) [µM] | GI50 (U251 CNS) [µM] | GI50 (SF-539 CNS) [µM] | GI50 (SF-295 CNS) [µM] | GI50 (EKVX NSCLC) [µM] | GI50 (A498 renal) [µM] | GI50 (LOX IMVI melanoma) [µM] | GI50 (MCF7 breast) [µM] | TGI (MCF7 breast) [µM] | TGI (MDA-MB-435) [µM]
1 | COc1ccc2c(CN3CCCCC3CO)cc3cc(OC)c(OC)cc3c2c1 (stereo not drawn) | 16.5 | 19.4 | 18.3 | 15 | 13.6 | 19.7 | 12.7 | 13.7 |  |  |  |  |  |  |  |  |  |  | 
2 | COCCCNC(=O)C1C(=O)N(CCCOC)C(=O)/C1=N\N (stereo not drawn) | > 100 | > 100 | > 100 | > 100 | > 100 | > 100 | > 100 |  |  |  |  |  |  |  |  |  |  |  | 
3 | O=C1c2ccccc2C(Br)(Br)c2ccccc21 | > 31.6 | > 31.6 | > 31.6 | > 100 | > 31.6 | > 100 |  | > 31.6 |  |  |  |  |  |  |  |  |  |  | 
4 | Cc1ccc(S(=O)(=O)N/N=C(\c2nc3ccc(Cl)cc3[nH]c2=O)C(O)c2cccc([N+](=O)[O-])c2)cc1 (stereo not drawn) | > 100 | > 100 | > 100 | > 100 | > 100 | > 100 | > 100 | > 100 |  |  |  |  |  |  |  |  |  |  | 
5 | CN(C)CC(C)(C)C(=O)/C=C/c1ccc(/C=C/C(=O)C(C)(C)CN(C)C)cc1 | 4.75 | 2.59 | 3.04 | 3.81 | 3.84 | 3.26 | 3.46 | 1.69 |  |  |  |  |  |  |  |  |  |  | 
6 | CCC[CH2][Sn]1([CH2]CCC)[O]CC(Cc2ccccc2)[O]1 (stereo not drawn) | 11.7 | 7.42 | 3.91 | 4.15 | 6.3 | 8.77 | 8.22 | 3.63 | 3.45 | 2.34 | 1.85 | 1.87 | 2.1 | 2.39 | 2.77 | 1.68 |  |  | 
7 | CC(=O)[O][Ga]([Cl])[O]C(C)=O | > 100 | > 100 | > 100 | > 100 | > 100 |  | > 100 | > 100 | > 100 | > 100 | > 100 | > 100 | > 100 |  | > 100 | > 100 |  |  | 
8 | COc1cc2c(c(OC)c1OC)-c1ccc(SC)c(=O)cc1[C@@H](NCc1ccc(C#N)cc1)CC2 | > 100 | 0.0129 | 0.00787 | 0.00582 |  | > 100 |  | 55.1 |  |  |  |  |  |  |  |  |  |  | 
9 | COC(=O)N(C(=O)OC)C(C(=O)O)C(C)C (stereo not drawn) | > 100 |  | > 100 | > 100 | > 100 | > 100 |  | > 100 |  |  |  |  |  |  |  |  |  |  | 
10 | CC(C)(C)N=NNc1cn(C2OC(CO)C(O)C2O)c(=O)[nH]c1=O (stereo not drawn) | > 100 | > 100 |  |  | > 100 | > 100 | > 100 | > 100 |  |  |  |  |  |  |  |  |  |  | 
11 | CCc1cccc(C)c1NC(=O)c1sc2nc3c(cc2c1N)CCCCC3 | > 100 | 9.02 | 80.9 | 8.21 | > 100 | > 100 | 23.3 | 91.5 | 4.07 | 2.56 | 3.62 | 2.29 | 3.05 | 4.17 | 2.2 | 5.3 | 1.86 | > 100 | 
12 | C=C(c1ccc2nc(NC(=O)OC)[nH]c2c1)c1cccs1 | > 100 |  | 7.31 | 0.523 | 0.934 | > 100 | 2.71 | > 52.6 |  |  |  |  |  |  |  |  |  | > 100 | 
13 | CC(C)CCC(=O)c1ccoc1 | > 100 | > 100 | > 100 | > 100 | > 100 | > 100 |  | > 100 |  |  |  |  |  |  |  |  |  | > 100 | > 100
14 | O=c1nc(/C=C/c2ccccc2Cl)cc2n1CCN2CCO |  | 79.8 |  | > 100 | > 100 | > 100 |  | > 100 |  |  |  |  |  |  |  |  |  |  | 
15 | Cc1ccc(SC(CCC(Sc2ccc(C)cc2)Sc2ccc(C)cc2)Sc2ccc(C)cc2)cc1 | > 100 | > 100 | > 100 | > 100 | > 100 | > 100 | > 100 | > 100 |  |  |  |  |  |  |  |  |  |  | 
16 | CC1CCC2(CC1)NN=c1s/c(=C\c3ccc(O)cc3)c(=O)n1N2 (stereo not drawn) | > 100 | > 100 | > 100 | > 100 | > 100 | > 100 |  | > 100 |  |  |  |  |  |  |  |  |  |  | 
17 | COc1ccc(OC)c(/C(C)=N/NC(N)=S)c1 |  | > 100 | > 100 | > 100 | > 100 | > 100 | > 100 | > 100 |  |  |  |  |  |  |  |  |  |  | 
